# “Also recorded” adds a separate entry of the source.
# Columns and labels:
# [1] = test system: spleen cell subsets; assay: Spleen cell subsets of treated BWF1 mice by flow cytometry; format: in vivo, mouse; conditions: for Numbers of MM (splenic PBMC): mouse, in vivo; for Frequency of cells ± SEM: CD4+ / Frequency of cells ± SEM: CD8+ / Frequency of cells ± SEM: CD11b^+Ly6C^+Ly6G+ / Frequency of cells ± SEM: CD11b^+Ly6C^+Ly6G− / Frequency of cells ± SEM: CD11b^+MDSC−(Mφ) / Frequency of cells ± SEM: CD11c^+CD11b+(DC) / Frequency of cells ± SEM: CD11c^+CD11b− (DC) / Frequency of cells ± SEM: CD4^+CD25^+Foxp3^+ / Frequency of cells ± SEM: CD19+: spleen, LAQ 25 mg/kg, MMF 100 mg/kg
# [2] = test system: spleen cell subsets; assay: as above; format: in vivo, mouse; conditions: for Percentage of CD8^+ cells in spleen: compared to the control mice; for Frequency of cells ± SEM: CD11b^+Ly6C^hiGr-1^− (MΦ^2) / Frequency of cells ± SEM: CD11b^+Ly6C^intGr-1^+ (Gr-1) / Frequency of cells ± SEM: CD 19^+ / Frequency of cells ± SEM: CD19^+CD23^−CD21^+IgM^hi (MZ): spleen at age 32 weeks, oral gavage from age 11 weeks, LAQ 25 mg/kg 3 days per week, MMF 100 mg/kg 5 days/week; for Frequency of cells ± SEM: CD 19^+ / Frequency of cells ± SEM: CD19^+CD23^−CD21^+IgM^hi (MZ): in % (unit assumed); for Percentage of CD4^+ T cells in spleen: vs control mice
# Description: Water-gavaged mice constituted the control untreated animals. The spleen cell subsets were identified by the expression of cell surface markers at age 32 weeks as follow: iTregs; nTregs; MΦ: CD11b^−CD103^−; MΦ^2: CD11b^+Ly6C^hiGr-1^−; MΦ^3: CD11b^+Ly6C^intGr-1^−; Gr-1: CD11b ly6C^intGr-1^+; DC: CD11c^+CD103^+; T2: CD19^+CD23^+CD21^+IgM^hi; MZ: CD19^+CD23^−CD21^+IgM^hi. Abbreviations: iTregs=induced T regulatory cells (Tregs). nTregs=natural Tregs. T2=transitional 2 B cells. MZ=marginal zone B cells. MΦ=macrophages. Gr1=granulocytes. Values are mean±SEM. The statistical significance between the groups was determined by analysis of variance (-A-NOVA). ^AP<0.05 versus untreated controls.
# (§1) Single cell suspensions of splenocytes or kidney cells were prepared using cell strainers (Fisher), followed by red blood cell lysis. Kidney lymphocytes were separated from connective tissue by centrifugation (15 minutes at 400g) in 30% Percoll (GE Healthcare). CD4^+CD25^− cells from spleen and kidney were isolated using the CD4^+CD25^+ regulatory T cell isolation kit according to manufacturer's protocol (Miltenyi). CD11b+ cells were isolated using EasySep mouse CD11b positive selection kit (StemCell Technologies), surface stained for Ly6C and Ly6G prior to sorting myeloid-derived suppressor cells (MDSC) using FACSAria II. Populations were >95% pure by FACS analysis.
# Single-cell suspensions from spleen or kidneys were stained for extracellular markers for 20 min at 4° C. in PBS/1% FBS. Intracellular staining for Foxp3 and cytokines was performed using the Foxp3 Fixation/Permeabilization kit according to the manufacturer's protocol (eBioscience). Cells were acquired on a FACS LSR II (BD) and data was analyzed using Flowjo (Tree Star).
# [3] = test system: BWF1 mice with anti-dsDNA and low proteinuria (PU^lo); assay: Therapeutic treatment of BWF1 mice with anti-dsDNA and low proteinuria (PU^lo); format: in vivo, mouse; conditions: LAQ 25 mg/kg, MMF 100 mg/kg; for Anti-dsDNA / Increase of proteinuria / Rise in serum creatinine / Survival: PU^lo arm; for Reduction of endo-capillary hypercellularity, interstitial inflammation, and focal segmental glomerulosclerosis: PU^lo mice
# Experimental: Therapeutic Groups: a low proteinuria group)(PU^lo) consisted of mice with IgG anti-dsDNA detectable in serum and proteinuria ≦100 mg/dL, and a high proteinuria group (PU^hi) had proteinuria ≧300 mg/dL.
# Proteinuria was evaluated weekly using Albustix (Siemens), serum creatinine using a commercial kit (Arbor Assays) and anti-dsDNA IgG antibodies by ELISA as described previously (10). See, e.g., FIGS. 1 and 2.
# Kidney specimens of BWF1 mice (37 weeks of age in the prevention group or 7 and 11 weeks after institution of early or late therapies) were embedded in OCT compound and snap frozen. 4-5 μm an sections were air-dried, fixed with cold acetone and incubated with blocking buffer (anti-CD16/CD32 (1/50), 2% normal goat or rat serum, 2% BSA).
# Histological analysis of glomerular pathology was done by an investigator blinded to treatment group and included acute inflammatory features (endocapillary hypercellularity, mesangial hypercellularity, cellular necrosis, cellular crescents, and interstitial inflammation), and chronic features (global glomerulosclerosis (GS), focal segmental glomerulosclerosis (FSGS), and interstitial fibrosis or tubular atrophy (IF/TA)). […] The weighted total score of the clinical features was based on this formula: [endocapillary hypercellularity+mesengial hypercellularity+(cellular necrosis*2)+(cellular crescents*2)+interstitial inflammation)/5]+(GS+FSGS+IFTA)/3, with maximum score 5.2. A minimum of 25 glomeruli, of at least 10 mice per group, were scored. Scores from each individual mouse were added and averaged to yield the glomerulonephritis score.
# [4] = test system: CD3/28-stimulated CD4^+CD25^− T cell proliferation; assay: T cell suppression assay and function of MDSC sorted from spleens of treated mice; format: cell-based, mouse; conditions: data not shown
# Experimental: as §1, with “analysis. CD4^+CD25^− cells were labelled with 5 µM CFSE and stimulated with Dynabeads mouse T-cell activator CD3/CD28 (Invitrogen). Stimulated CD4^+CD25^− cells (4×10^4) were co-cultured with monocytic-MDSC(CD11b^+Ly6C^+Ly6G^−) or granulocytic-MDSC(CD11b^+Ly6C^+Ly6G^+) at a 1:1 ratio. Proliferation of CD4^+ cells was assayed after 4 days of incubation at 37° C., 5% CO2 by flow cytometry.” for “analysis.”
# [5] = test system: MS patients; conditions: compared to placebo; cited from earlier work
# [6] = spleen at age 32 weeks, oral gavage from age 11 weeks, LAQ 25 mg/kg 3 days per week, MMF 100 mg/kg 5 days/week
# [7] = Preventive, 25 weeks after treatment
# [8] = Preventive, 25 weeks after treatment, in % (unit assumed)
# [9] = Therapeutic (PU^lo), 10 wks after initiation of therapy
# [10] = Therapeutic (PU^lo), 10 wks after initiation of therapy, in % (unit assumed)
SMILES,Numbers of MM (splenic PBMC) [1],"Frequency of cells ± SEM: CD11b^+CD103^− (MΦ^1) [1, 6]","Frequency of cells ± SEM: CD11b^+Ly6C^intGr-1^− (MΦ^3) [1, 6]","Frequency of cells ± SEM: CD4+ [1, 7]","Frequency of cells ± SEM: CD8+ [1, 7]","Frequency of cells ± SEM: CD11b^+Ly6C^+Ly6G+ [1, 7]","Frequency of cells ± SEM: CD11b^+Ly6C^+Ly6G− [1, 7]","Frequency of cells ± SEM: CD11b^+MDSC−(Mφ) [1, 7]","Frequency of cells ± SEM: CD11c^+CD11b+(DC) [1, 7]","Frequency of cells ± SEM: CD11c^+CD11b− (DC) [1, 7]","Frequency of cells ± SEM: CD4^+CD25^+Foxp3^+ [1, 8]","Frequency of cells ± SEM: CD19+ [1, 8]","Frequency of cells ± SEM: CD4+ [1, 9]","Frequency of cells ± SEM: CD8+ [1, 9]","Frequency of cells ± SEM: CD11b^+Ly6C^+Ly6G+ [1, 9]","Frequency of cells ± SEM: CD11b^+Ly6C^+Ly6G− [1, 9]","Frequency of cells ± SEM: CD11b^+MDSC−(Mφ) [1, 9]","Frequency of cells ± SEM: CD11c^+CD11b+(DC) [1, 9]","Frequency of cells ± SEM: CD11c^+CD11b− (DC) [1, 9]","Frequency of cells ± SEM: CD4^+CD25^+Foxp3^+ [1, 10]",further results
"COc1c(C)c2c(c(O)c1C/C=C(\C)CCC(=O)OCCN1CCOCC1)C(=O)OC2 [MMF, mycophenolate mofetil, reference compound]",not,2.26 ± 0.25^A,23.44 ± 1.89,26.2 ± 1.3,12.4 ± 0.9,15. ± 1.6,33.4 ± 1.8,59.3 ± 2.3,1.0 ± 0.1,4.4 ± 0.3,7.9 ± 0.4,57.4 ± 3.9,20.1 ± 0.7,13.5 ± 2.1,17.5 ± 2.4,30.4 ± 2.7,40.5 ± 3.1,0.9 ± 0.2,4.1 ± 0.7,3.2 ± 0.8,"Frequency of cells ± SEM: CD11c^+CD103^+ (DC) [1, 6]: 0.48 ± 0.04^A; Frequency of cells ± SEM: CD19^+CD23^+CD21^+IgM^hi (T2) ([1]; spleen at age 32 weeks, oral gavage from age 11 weeks, LAQ 25 mg/kg 3 days per week, MMF 100 mg/kg 5 days/week, in % (unit assumed)): 36.56 ± 4.92; Frequency of cells ± SEM: CD19+ [1, 10]: 45.4 ± 3.3; Percentage of CD8^+ cells in spleen [2]: decreased; also recorded: reduced; Frequency of cells ± SEM: CD11b^+Ly6C^hiGr-1^− (MΦ^2) [2]: 11.81 ± 1.58; Frequency of cells ± SEM: CD11b^+Ly6C^intGr-1^+ (Gr-1) [2]: 25.01 ± 5.32; Frequency of cells ± SEM: CD 19^+ [2]: 57.38 ± 3.89; Frequency of cells ± SEM: CD19^+CD23^−CD21^+IgM^hi (MZ) [2]: 3.78 ± 0.99; Percentage of CD4^+ T cells in spleen [2]: decreased; also recorded: significantly lower percentage; Anti-dsDNA [3]: not significantly decreased; Increase of proteinuria [3]: prevented increased proteinuria; Rise in serum creatinine [3]: prevented; Survival [3]: significantly prolonged survival; Reduction of endo-capillary hypercellularity, interstitial inflammation, and focal segmental glomerulosclerosis [3]: equally effective"
"CCN(C(=O)c1c(O)c2c(Cl)cccc2n(C)c1=O)c1ccccc1 [LAQ, 5-chloro-N-ethyl-4-hydroxy-1-methyl-2-oxo-N-phenyl-1,2-dihydroquinoline-3-carboxamide]",significantly reduced,2.63 ± 0.30^A,18.48 ± 2.31^A,20.2 ± 0.5,12.3 ± 0.7,31.7 ± 3.6,37.5 ± 2.1,25.2 ± 1.7,0.7 ± 0.1,3.8 ± 0.2,9.4 ± 0.6,68.0 ± 3.8,21.3 ± 1.3,24.9 ± 2.9,33.2 ± 5.6,38.7 ± 1.9,25.6 ± 3.3,1.0 ± 0.2,4.5 ± 0.4,2.2 ± 0.1,"Production of arginase and reactive oxygen species (MDSC) [4]: not affected; Percent of CD4^+ Tregs (CD4^+CD25^+Foxp3^+) in splenocytes ([1]; FIG. 8): increased; Numbers of two putative regulatory cells, CD4^+CD25^+Foxp3^+ Treg and CD11b^+Ly6C^intGR-1^+ myeloid MM ([1]; LAQ compared to MMF): increased; Percentage of CD8^+ cells in spleen ([1]; compared to the control mice, listed as laquinimod): did not; Frequency of cells ± SEM: CD19^+CD23^+CD21^+IgM^hi (T2) [1, 6]: 51.19 ± 4.32^A; Frequency of cells ± SEM: CD19+ [1, 10]: 51.1 ± 3.3; Percentage of CD4^+ T cells in spleen ([1]; vs control mice, listed as laquinimod): did not; Percentage of CD8^+ cells in spleen [2]: did not; also recorded: not significantly altered; Frequency of cells ± SEM: CD11b^+Ly6C^hiGr-1^− (MΦ^2) [2]: 12.15 ± 2.11; Frequency of cells ± SEM: CD11b^+Ly6C^intGr-1^+ (Gr-1) [2]: 41.50 ± 3.08^A; Frequency of cells ± SEM: CD 19^+ [2]: 68.02 ± 3.83; Frequency of cells ± SEM: CD19^+CD23^−CD21^+IgM^hi (MZ) [2]: 11.85 ± 2.15; Percentage of CD4^+ T cells in spleen [2]: did not; New MRI lesions in the brains of patients with RRMS [5]: significant reduction; Anti-dsDNA [3]: not significantly decreased; Increase of proteinuria [3]: prevented increased proteinuria; Rise in serum creatinine [3]: prevented; Survival [3]: significantly prolonged survival; Reduction of endo-capillary hypercellularity, interstitial inflammation, and focal segmental glomerulosclerosis [3]: equally effective"
